Assay [1] is filed under the species Ovis aries. In words: Compound was tested for its ability to inhibit Dynamin-1 GTPase activity of sheep brain at 30 uM; NE=No effect.
The species entered for assay [2] is Ovis aries. As to the kind of experiment: Compound was tested for its ability to inhibit Dynamin-1 GTPase activity of sheep brain; Increased activity. Format: tissue-based.
Assay [3] is filed under the species Ovis aries. As to the kind of experiment: Concentration required against Dynamin-1 GTPase activity of sheep brain at 3 uM. Format: tissue-based.

SMILES strings stand for the structures. Activity calls are given as the source filed them. No cut-off for these calls is given here.

`CCCC/C=C\C/C=C\C/C=C\C/C=C\CCCC(=O)OCC(O)CO` (stereo not drawn): the outcome in assay [1] was inactive. This compound also showed a Concentration in assay [2] of 300 µM. Further, the inhibition in assay [3] stood at 70%.

One may read the inhibition as the drop in the measured response relative to a control, in per cent. The low end stands for little suppression, the high end for strong suppression.

These data come from ChEMBL document CHEMBL1149230, “Long chain amines and long chain ammonium salts as novel inhibitors of dynamin GTPase activity” (Bioorg Med Chem Lett, 2004).
